In one data set the test system is prostate cancer cells. The data set is described as follows: Cell death and senescence. It is filed as cell-based. The following applies: miR-141 expression.
In the next data set the test system is human EZH2 3'-UTR. The data set is described as follows: EZH2 3'-UTR luciferase reporter assay. It is filed as cell-based. The settings on record: Du145 cells. On the procedure: FIG. 6A: Putative binding site of miR-141 in EZH2 3′-UTR. […] FIG. 6C is a qPCR analysis of EZH2 mRNA levels in CD44^+ PCa cells. Bars, mean±SD. *P<0.05; **P<0.01. […] Bars, mean±SD. **P<0.01. […] Western blotting was performed in PC3 and Du145 cells transfected with NC (60 nM) or miR-141 (30 or 60 nM) oligos (72 h). Relative protein levels were measured by densitometry and normalized to GAPDH levels (indicated below). […] Du145 cells plated one day before were treated with 1, 2, and 5 μM of DZNep for 96 h and then cells were harvested for invasion assays. **P<0.01. Inset, WB showing reduced EZH2 proteins by DZNep. […] Du145 cells were transfected with 10 nM scramble siRNA (siCon) or EZH2-targeting siRNAs (siEZH2) or siEZH2 plus anti-miR-141 (30 nM). 48 h later, cells were harvested for invasion assays. Bars, mean±SD. **P<0.01. […]
The human CD44 3′-UTR was amplified from Du145 genomic DNA using primers 5′-[…]-3′ (SEQ ID NO: 2) and 5′-[…]-3′ (SEQ ID NO: 3), as previously described (13). […] The luciferase activities were detected using Duo-luciferase reporter assay system (Promega). Human RAC1, CDC42, CDC42EP3, and ARPC5 3′-UTR luciferase reporter constructs were obtained from SwitchGear Genomics (Menlo Park, Calif.) and luciferase activities were measured per the manufacturer's instructions using LightSwitch luciferase assay kit.

Data set [1] has as its system CD44+ and bulk human prostate cancer (HPCa) cells freshly purified from patient tumors. The data set is described as follows: Clonal and sphere formation assays, primary patient cells. It is filed as cell-based. The method, then: Average % of CD44^+ cells (as determined by flow analysis; n=3-5) is indicated for each cell type (UD, undetectable). […] Purified CD44^+ Du145 cells were transfected with NC or miR-141 oligos (30 nM, 48 h) and then plated for clonal (1D & 1E) and sphere (1F) assays. Bars represent mean±SD. *, P<0.05; **, P<0.01. […] Shown are tumor images, cell numbers injected (100,000 cells per injection for all models), site of injection (s.c, subcutaneously) and days (d) when tumors were harvested. Tumor weight and incidences with corresponding P values are also indicated. ns, not significant. […] For 1st generation (1°) sphere assays, 1,000 cells per well were plated in triplicate for each group in 12-well plate and results scored in 11 days. For 2nd generation (2°), the 1° spheres were harvested, digested with Collagenase and Trypsin into single cells, 1,000 cells/well were plated, and results scored in 10 days. Quantification of the colonies was plotted (1 L; **P<0.01). […]
For clonal assays, cultured prostate cancer cells or human prostate cancer cells freshly purified from patient primary tumors were plated at a clonal density (i.e., 100 cells/well) in a 6-well plate. The number of holoclones (33) was counted several days later. […] Floating spheres that arose in 1-2 weeks were counted. […]

The subject of data set [2] is PPC-1 bulk cells or CD44+ DU145 cells. The data set is described as follows: EdU incorporation flow cytometry. It is filed as cell-based, human. The settings on record: miR-141-overexpressing cells; 30 nM oligos 48 h, 10 μM EdU 2.5 h. On the procedure:
EdU (5-ethynyl-2′-deoxyuridine) is a nucleoside analog to thymidine and incorporated into DNA during active DNA synthesis. EdU incorporation assays were performed using Click-iT EdU Flow Cytometer Assays kit (C10418, Invitrogen) per manufacturer's instructions. Briefly, PPC-1 bulk cells or CD44^+ DU145 cells transfected with negative control or miR-141 oligos (30 nM) for 48 h were pulsed with 10 μM EdU for 2.5 h and harvested. After fixation and permeabilization, cells were processed for EdU immunostaining and also labeled with Pacific Blue azide (1:200) and finally analyzed on a flow cytometer.

“miR-141: miR-141 mirVana mimics (Life Technologies); microRNA-141 oligonucleotide may have SEQ ID NO: 1; in some experiments over-expressed by lentiviral vectors (UAACACUGUCUGGUAAAGAUGG; listed as RNA, further chemistry not given here) [miR-141 mirVana mimics (Life Technologies); in some experiments over-expressed by lentiviral vectors]”: in the data set on prostate cancer cells, the “effects on cell death and senescence” value was “minimal effects”. In addition, in the data set with human EZH2 3'-UTR, the “luciferase activity, WT EZH2 3'-UTR” value was “suppressed” and the “luciferase activity, mutated EZH2 3'-UTR” value is on record as “not”. Also, the clonal growth entry in data set [1] (miR-141 overexpression (Lenti-141 MOI 10, 72 h)) is given as “inhibited”. Further, the serial sphere formation result in data set [1] (miR-141 overexpression, CD44+ and bulk HPCa cells, 1st and 2nd generation spheres in Matrigel) is “inhibited”. The EdU incorporation entry in data set [2] is “reduced”.

These data come from patent US10202604B2, “Methods of using microRNA-141” (Stemirna Therapeutics Co., Ltd., priority 2016, dated 2019).
